Like-named read-outs stand apart in the source and are kept apart here.
Molecular target: nsp14 methyltransferase from SARS-CoV-2 (Severe acute respiratory syndrome coronavirus 2, UniProt P0DTD1)
Test: Nsp14 MTase activity inhibition in vitro (EchoMS assay)
Type: biochemical
[1] = recombinant nsp14 protein expressed in E. coli, dose-response curve

| Compound | IC50 [1] | IC50 |
| --- | --- | --- |
| COc1ccc(-c2onc(C)c2CSC[C@H]2O[C@@H](n3ccc4c(N)ncnc43)[C@H](O)[C@@H]2O)cc1 [Compound 94c, (2R,3R,4S,5S)-2-(4-Amino-7H-pyrrolo[2,3-d]pyrimidin-7-yl)-5-((((5-(4-methoxyphenyl)-3-methylisoxazol-4-yl)methyl)thio)methyl)tetrahydrofuran-3,4-diol] | 10 to 30 nM |  |
| Cc1ccnc(-c2ccccc2)c1CSC[C@H]1O[C@@H](n2ccc3c(N)ncnc32)[C@H](O)[C@@H]1O [Compound 62c, (2R,3R,4S,5S)-2-(4-Amino-7H-pyrrolo[2,3-d]pyrimidin-7-yl)-5-((((4-methyl-2-phenylpyridin-3-yl)methyl)thio)methyl)tetrahydrofuran-3,4-diol] | 500 to 2000 nM |  |
| Cc1nsc(-c2ccccc2)c1CSC[C@H]1O[C@@H](n2cc(C#Cc3cncnc3)c3c(N)ncnc32)[C@H](O)[C@@H]1O [Compound 238c, (2R,3R,4S,5S)-2-(4-Amino-5-(pyrimidin-5-ylethynyl)-7H-pyrrolo[2,3-d]pyrimidin-7-yl)-5-((((3-methyl-5-phenylisothiazol-4-yl)methyl)thio)methyl)tetrahydrofuran-3,4-diol] | 30 to 100 nM |  |
| Cc1noc(-c2ccccc2)c1CSC[C@H]1O[C@@H](n2nc(C#Cc3cncnc3)c3c(N)ncnc32)[C@H](O)[C@@H]1O [Compound 218b] | 30 to 100 nM |  |
| Cc1noc(-c2ccccc2)c1CSC[C@H]1O[C@@H](n2cc(C3C[C@@H]4CC[C@H]3C4)c3c(N)ncnc32)[C@H](O)[C@@H]1O (stereo in doubt) [Compound 136b, (2R,3R,4S,5S)-2-(4-Amino-5-((1S,4R)-bicyclo[2.2.1]heptan-2-yl)-7H-pyrrolo[2,3-d]pyrimidin-7-yl)-5-((((3-methyl-5-phenylisoxazol-4-yl)methyl)thio)methyl)tetrahydrofuran-3,4-diol] | 100 to 500 nM |  |
| Cc1noc(-c2ccccc2)c1CSC[C@H]1O[C@@H](n2cc(C3CCCC3)c3c(N)ncnc32)[C@H](O)[C@@H]1O [Compound 133b, (2R,3R,4S,5S)-2-(4-Amino-5-cyclopentyl-7H-pyrrolo[2,3-d]pyrimidin-7-yl)-5-((((3-methyl-5-phenylisoxazol-4-yl)methyl)thio)methyl)tetrahydrofuran-3,4-diol] | 100 to 500 nM |  |
| Cc1noc(-c2ccc(N)cc2)c1CSC[C@H]1O[C@@H](n2cc(C#Cc3cncnc3)c3c(N)ncnc32)[C@H](O)[C@@H]1O [Compound 241c, (2R,3R,4S,5S)-2-(4-Amino-5-(pyrimidin-5-ylethynyl)-7H-pyrrolo[2,3-d]pyrimidin-7-yl)-5-((((5-(4-aminophenyl)-3-methylisoxazol-4-yl)methyl)thio)methyl)tetrahydrofuran-3,4-diol] | 10 to 30 nM |  |
| Cc1noc(-c2ccccc2)c1CSC[C@H]1O[C@@H](n2nc(-c3ccc(CC#N)cc3)c3c(N)ncnc32)[C@H](O)[C@@H]1O [Compound 222b, 2-(4-(4-Amino-1-((2R,3R,4S,5S)-3,4-dlhydroxy-5-((((3-methyl-5-phenylisoxazol-4-yl)methyl)thio)methyl)tetrahydrofuran-2-yl)-1H-pyrazolo[3,4-d]pyrimidin-3-yl)phenyl)acetonitrile] | 10 to 30 nM |  |
| Cc1noc(-c2ccc([N+](=O)[O-])cc2)c1CSC[C@H]1O[C@@H](n2ccc3c(N)ncnc32)[C@H](O)[C@@H]1O [Compound 93c, (2R,3R,4S,5S)-2-(4-Amino-7H-pyrrolo[2,3-d]pyrimidin-7-yl)-5-((((3-methyl-5-(4-nitrophenyl)isoxazol-4-yl)methyl)thio)methyl)tetrahydrofuran-3,4-diol] | 100 to 500 nM |  |
| Cn1c(-c2ccccc2)nc(-c2ccccc2)c1CSC[C@H]1O[C@@H](n2ccc3c(N)ncnc32)[C@H](O)[C@@H]1O [Compound 120c, (2R,3R,4S,5S)-2-(4-Amino-7H-pyrrolo[2,3-d]pyrimidin-7-yl)-5-((((1-methyl-2,4-diphenyl-1H-imidazol-5-yl)methyl)thio)methyl)tetrahydrofuran-3,4-diol] | 30 to 100 nM |  |
| Cc1noc(-c2ccccc2)c1CSC[C@H]1O[C@@H](n2cc(F)c3c(N)ncnc32)[C@H](O)[C@@H]1O [Compound 128, (2R,3R,4S,5S)-2-(4-Amino-5-fluoro-7H-pyrrolo[2,3-d]pyrimidin-7-yl)-5-((((3-methyl-5-phenylisoxazol-4-yl)methyl)thio)methyl)tetrahydrofuran-3,4-diol] | 100 to 500 nM |  |
| Cc1csc(-c2ccccc2)c1CSC[C@H]1O[C@@H](n2ccc3c(N)ncnc32)[C@H](O)[C@@H]1O [Compound 53c, (2R,3R,4S,5S)-2-(4-Amino-7H-pyrrolo[2,3-d]pyrimidin-7-yl)-5-((((4-methyl-2-phenylthiophen-3-yl)methyl)thio)methyl)tetrahydrofuran-3,4-diol] | 100 to 500 nM |  |
| Cn1ncc(-c2ccccc2)c1CSC[C@H]1O[C@@H](n2ccc3c(N)ncnc32)[C@H](O)[C@@H]1O [Compound 60c, (2R,3R,4S,5S)-2-(4-Amino-7H-pyrrolo[2,3-d]pyrimidin-7-yl)-5-((((1-methyl-4-phenyl-1H-pyrazol-5-yl)methyl)thio)methyl)tetrahydrofuran-3,4-diol] | 30 to 100 nM |  |
| Cc1noc(-c2ccccc2)c1CSC[C@H]1O[C@@H](n2cc(-c3ccc(-c4ccccn4)cc3)c3c(N)ncnc32)[C@H](O)[C@@H]1O [Compound 188] | 30 to 100 nM |  |
| Cc1ncnc(-c2ccc3c(c2)OCO3)c1CSC[C@H]1O[C@@H](n2ccc3c(N)ncnc32)[C@H](O)[C@@H]1O [Compound 102c, (2R,3R,4S,5S)-2-(4-Amino-7H-pyrrolo[2,3-d]pyrimidin-7-yl)-5-((((4-(benzo[d][1,3]dioxol-5-yl)-6-methylpyrimidin-5-yl)methyl)thio)methyl)tetrahydrofuran-3,4-diol] | 30 to 100 nM |  |
| Cc1noc(-c2ccccc2)c1CSC[C@H]1O[C@@H](n2cc(-c3ccc4nc[nH]c4c3)c3c(N)ncnc32)[C@H](O)[C@@H]1O [Compound 151, (2R,3R,4S,5S)-2-(4-Amino-5-(1H-benzo[d]imidazol-6-yl)-7H-pyrrolo[2,3-d]pyrimidin-7-yl)-5-((((3-methyl-5-phenylisoxazol-4-yl)methyl)thio)methyl)tetrahydrofuran-3,4-diol] | 30 to 100 nM |  |
| Cc1noc(-c2ccccc2)c1CSC[C@H]1O[C@@H](n2cc(SC34CC5CC(CC(C5)C3)C4)c3c(N)ncnc32)[C@H](O)[C@@H]1O [Compound 191, (2R,3R,4S,5S)-2-(5-((Adamantan-1-yl)thio)-4-amino-7H-pyrrolo[2,3-d]pyrimidin-7-yl)-5-((((3-methyl-5-phenylisoxazol-4-yl)methyl)thio)methyl)tetrahydrofuran-3,4-diol] | 100 to 500 nM |  |
| Cn1cnc(-c2ccccc2)c1CSC[C@H]1O[C@@H](n2ccc3c(N)ncnc32)[C@H](O)[C@@H]1O [Compound 49c] | 100 to 500 nM |  |
| COc1ccc(-c2nc(C)c(CSC[C@H]3O[C@@H](n4ccc5c(N)ncnc54)[C@H](O)[C@@H]3O)c(-c3ccccc3)n2)cc1OC [Compound 119c, (2R,3R,4S,5S)-2-(4-Amino-7H-pyrrolo[2,3-d]pyrimidin-7-yl)-5-((((2-(3,4-dimethoxyphenyl)-4-methyl-6-phenylpyrimidin-5-yl)methyl)thio)methyl)tetrahydrofuran-3,4-diol] | 30 to 100 nM |  |
| Cc1cc(C#N)cc(C)c1-c1cn([C@@H]2O[C@H](CSCc3c(C)noc3-c3ccccc3)[C@@H](O)[C@H]2O)c2ncnc(N)c12 [Compound 150, 4-(4-Amino-7-((2R,3R,4S,5S)-3,4-dihydroxy-5-((((3-methyl-5-phenylisoxazol-4-yl)methyl)thio)methyl)tetrahydrofuran-2-yl)-7H-pyrrolo[2,3-d]pyrimidin-5-yl)-3,5-dimethylbenzonitrile] | 10 to 30 nM |  |
| Cc1noc(-c2ccc3c(c2)OCO3)c1CSC[C@H]1O[C@@H](n2nc(-c3ccc(CC#N)cc3)c3c(N)ncnc32)[C@H](O)[C@@H]1O [Compound 226, 2-(4-(4-Amino-1-((2R,3R,4S,5S)-5-((((5-(benzo[d][1,3]dioxol-5-yl)-3-methylisoxazol-4-yl)methyl)thio)methyl)-3,4-dihydroxytetrahydrofuran-2-yl)-1H-pyrazolo[3,4-d]pyrimidin-3-yl)phenyl)acetonitrile] | 10 to 30 nM |  |
| Nc1ncnc2c1ccn2[C@@H]1O[C@H](CSCc2[nH]cnc2-c2ccccc2)[C@@H](O)[C@H]1O [Compound 104c, (2R,3R,4S,5S)-2-(4-Amino-7H-pyrrolo[2,3-d]pyrimidin-7-yl)-5-((((4-phenyl-1H-imidazol-5-yl)methyl)thio)methyl)tetrahydrofuran-3,4-diol] | 500 to 2000 nM |  |
| Cc1noc(Cc2ccccc2)c1CSC[C@H]1O[C@@H](n2ccc3c(N)ncnc32)[C@H](O)[C@@H]1O [Compound 99c, (2R,3R,4S,5S)-2-(4-Amino-7H-pyrrolo[2,3-d]pyrimidin-7H-yl)-5-((((5-benzyl-3-methylisoxazol-4-yl)methyl)thio)methyl)tetrahydrofuran-3,4-diol] |  | 2000 to 5000 nM |
| Cc1noc(-c2ccc3c(c2)OCO3)c1CSC[C@H]1O[C@@H](n2cc(-c3ccc(C#N)cc3)c3c(N)ncnc32)[C@H](O)[C@@H]1O [Compound 236b] | 10 to 30 nM |  |
| Cc1noc(-c2ccccc2)c1CSC[C@H]1O[C@@H](n2cc(C#Cc3cccc4ccccc34)c3c(N)ncnc32)[C@H](O)[C@@H]1O [Compound 175b, (2R,3R,4S,5S)-2-(4-Amino-5-(naphthalen-1-ylethynyl)-7H-pyrrolo[2,3-d]pyrimidin-7-yl)-5-((((3-methyl-5-phenylisoxazol-4-yl)methyl)thio)methyl)tetrahydrofuran-3,4-diol] | 500 to 2000 nM |  |
| Cc1ncnc(-c2ccccc2)c1CSC[C@H]1O[C@@H](n2cc(C#Cc3cncnc3)c3c(N)ncnc32)[C@H](O)[C@@H]1O [Compound 239c, (2R,3R,4S,5S)-2-(4-Amino-5-(pyrimidin-5-ylethynyl)-7H-pyrrolo[2,3-d]pyrimidin-7-yl)-5-((((4-methyl-6-phenylpyrimidin-5-yl)methyl)thio)methyl)tetrahydrofuran-3,4-diol] | 30 to 100 nM |  |
| Cc1noc(-c2ccccc2)c1CSC[C@H]1O[C@@H](n2cc(Cc3ccccc3)c3c(N)ncnc32)[C@H](O)[C@@H]1O [Compound 185b, (2R,3R,4S,5S)-2-(4-Amino-5-benzyl-7H-pyrrolo[2,3-d]pyrimidin-7-yl)-5-((((3-methyl-5-phenylisoxazol-4-yl)methyl)thio)methyl)tetrahydrofuran-3,4-diol] | 100 to 500 nM |  |

— patent EP4553080A1, “NUCLEOSIDE DERIVATIVES AS ANTIVIRAL AGENTS AGAINST CORONAVIRUSES” (Ustav Organicke Chemie a Biochemie AV CR, v.v.i., priority 2023, dated 2025)
